Assay results reported in ChEMBL document CHEMBL1142270, “Synthesis, thermal stability, antimalarial activity of symmetrically and asymmetrically substituted tetraoxanes” (Bioorg Med Chem Lett, 2008).
The source made the active and inactive calls. The rule behind the calls is not given here.

What was measured:
Plasmodium falciparum [1] = experiment: Antimalarial activity against Plasmodium falciparum D6 in parasite LDH assay to 16.72 uM; type: functional, organism-based
Plasmodium falciparum [2] = experiment: Antimalarial activity against Plasmodium falciparum W2 in parasite LDH assay to 16.72 uM; type: functional, organism-based
[3] = Selectivity index, ratio of IC50 for african green monkey (Cercopithecus aethiops) Vero cells to IC50 for Plasmodium falciparum W2; type: functional
Plasmodium falciparum [4] = experiment: Antimalarial activity against Plasmodium falciparum D6 in parasite LDH assay; type: functional, organism-based
Plasmodium falciparum [5] = experiment: Antimalarial activity against Plasmodium falciparum W2 in parasite LDH assay; type: functional, organism-based
Vero = experiment: Cytotoxicity against african green monkey Vero cells by neutral red assay upto 16.72 uM; type: cell-based; settings: chlorocebus sabaeus
[6] = Selectivity index, ratio of IC50 for African green monkey (Cercopithecus aethiops) Vero cells to IC50 for Plasmodium falciparum D6; type: functional

| Compound | Activity (Plasmodium falciparum [1]) | Activity (Plasmodium falciparum [2]) | Ratio IC50 [3] | IC50 (Plasmodium falciparum [4]) [nM] | IC50 (Plasmodium falciparum [5]) [nM] | Activity (Vero) | Ratio IC50 [6] |
| --- | --- | --- | --- | --- | --- | --- | --- |
| FC(F)(F)c1cccc(C2OOC(c3cccc(C(F)(F)F)c3)OO2)c1 (stereo not given) | inactive | inactive |  |  |  |  |  |
| Brc1ccc(C2OOC3(CCCC3)OO2)cc1 | inactive | inactive |  |  |  |  |  |
| Clc1ccc(C2OOC3(CCCC3)OO2)cc1 |  |  | >1 | 16700 | 16700 | Non-toxic | >1 |
| Cc1ccccc1C1OOC(c2ccccc2C)OO1 (stereo not given) |  |  | >13.6 | 2460 | 1290 | Non-toxic | >7.1 |
| Clc1ccccc1C1OOC2(CCCCC2)OO1 |  |  | >1.9 | 14000 | 9240 | Non-toxic | >1.3 |
| Clc1ccccc1C1OOC(c2ccccc2Cl)OO1 (stereo not given) | inactive | inactive |  |  |  |  |  |
| c1ccc(C2OOC3(CCCCC3)OO2)cc1 |  |  | >11.1 | 2200 | 1820 | Non-toxic | >9.2 |
| Clc1ccc(C2OOC3(CCCCC3)OO2)cc1 |  |  | >6.8 | 2660 | 2590 | Non-toxic | >6.6 |
| Clc1ccc(C2OOC(c3ccc(Cl)cc3)OO2)cc1 (stereo not given) |  |  | >4.8 | 4470 | 3190 | Non-toxic | >3.4 |
| Brc1ccc(C2OOC3(CCCCC3)OO2)cc1 |  |  | >2.8 | 3810 | 5390 | Non-toxic | >4 |
| Clc1cccc(C2OOC(c3cccc(Cl)c3)OO2)c1 (stereo not given) |  |  | >21.6 | 1370 | 700 | Non-toxic | >11.1 |
| Brc1ccccc1C1OOC(c2ccccc2Br)OO1 (stereo not given) | inactive | inactive |  |  |  |  |  |
| Clc1cccc(C2OOC3(CCCCC3)OO2)c1 |  |  | >7.1 | 2140 | 2470 | Non-toxic | >8.2 |
| Brc1cccc(C2OOC(c3cccc(Br)c3)OO2)c1 (stereo not given) | inactive | inactive |  |  |  |  |  |
| c1ccc(C2OOC3(CCCCCC3)OO2)cc1 |  |  | >2.5 | 9990 | 7590 | Non-toxic | >1.9 |
| CCN(CC)CCCC(C)Nc1ccnc2cc(Cl)ccc12 (stereo not given) [CHLOROQUINE] |  |  |  |  |  | Non-toxic |  |
| Brc1ccc(C2OOC(c3ccc(Br)cc3)OO2)cc1 (stereo not given) |  |  | >13.6 | 1390 | 670 | Non-toxic | >8.5 |
| C[C@@H]1CC[C@H]2[C@@H](C)C(=O)O[C@@H]3O[C@@]4(C)CC[C@@H]1[C@]32OO4 [ARTEMISININ] |  |  | >1400 | 35 | 15 | Non-toxic | >476 |
| FC(F)(F)c1ccc(C2OOC(c3ccc(C(F)(F)F)cc3)OO2)cc1 (stereo not given) | inactive | inactive |  |  |  |  |  |
| Cc1ccc(C2OOC(c3ccc(C)cc3)OO2)cc1 (stereo not given) |  |  | >14.9 | 1470 | 1180 | Non-toxic | >11.9 |
| Clc1ccc(C2OOC3(CCCCCC3)OO2)cc1 |  |  | >1 | 16700 | 16700 | Non-toxic | >1 |
| Cc1cccc(C2OOC(c3cccc(C)c3)OO2)c1 (stereo not given) |  |  | >22.7 | 960 | 770 | Non-toxic | >18.2 |
| Fc1ccc(C2OOC(c3ccc(F)cc3)OO2)cc1 (stereo not given) |  |  | >14.9 | 1640 | 1140 | Non-toxic | >10.4 |
| Brc1ccc(C2OOC3(CCCCCC3)OO2)cc1 | inactive | inactive |  |  |  |  |  |
